Source: ChEMBL document CHEMBL1201862, “PubChem BioAssay data set” (2004)
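Tested at 5 concentrations; 48 h exposure; 96-well plates; endpoints linearly interpolated, else capped at highest concentration. At the GI50, growth is halved.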 The source made the active and inactive calls. Rule as the data show it: active = GI50 up to about 1.1 µM and inactive = higher.

Columns and labels:
Assay in all cases: DTP human tumour cell line panel, 48 h
A498 = test system: A498
MDA-MB-435 = test system: MDA-MB-435
BT-549 = test system: BT-549
SF-539 = test system: SF-539
SK-MEL-28 = test system: SK-MEL-28
MDA-MB-231 = test system: MDA-MB-231
IGROV-1 = test system: IGROV-1
Hs-578T = test system: Hs-578T
MOLT-4 = test system: MOLT-4
HL-60 = test system: HL-60
NCI-H23 = test system: NCI-H23
CAKI-1 = test system: CAKI-1
OVCAR-4 = test system: OVCAR-4
OVCAR-8 = test system: OVCAR-8
HOP-92 = test system: HOP-92
SF-268 = test system: SF-268
HT-29 = test system: HT-29
T47D = test system: T47D
HCT-116 = test system: HCT-116
NCI-H226 = test system: NCI-H226
RXF 393 = test system: RXF 393
SK-MEL-2 = test system: SK-MEL-2
NCI-H460 = test system: NCI-H460
CCRF-CEM = test system: CCRF-CEM
EKVX = test system: EKVX
ACHN = test system: ACHN
HOP-62 = test system: HOP-62
SW-620 = test system: SW-620
SR = test system: SR
HCT-15 = test system: HCT-15
DU-145 = test system: DU-145
U-251 = test system: U-251
K562 = test system: K562
NCI/ADR-RES = test system: NCI/ADR-RES
M14 = test system: M14
MDA-N = test system: MDA-N
SNB-19 = test system: SNB-19
786-0 = test system: 786-0
RPMI-8226 = test system: RPMI-8226
LOX IMVI = test system: LOX IMVI
OVCAR-3 = test system: OVCAR-3
SK-MEL-5 = test system: SK-MEL-5
UACC-257 = test system: UACC-257
SN12C = test system: SN12C
SF-295 = test system: SF-295
KM12 = test system: KM12
HCC 2998 = test system: HCC 2998
A549 = test system: A549
UO-31 = test system: UO-31
Malme-3M = test system: Malme-3M
NCI-H522 = test system: NCI-H522
UACC-62 = test system: UACC-62
OVCAR-5 = test system: OVCAR-5
TK-10 = test system: TK-10
MCF7 = test system: MCF7
PC-3 = test system: PC-3
COLO 205 = test system: COLO 205
SNB-75 = test system: SNB-75
SK-OV-3 = test system: SK-OV-3

Nc1cccc2nsnc12
GI50 (A498): > 100 µM (inactive)
GI50 (MDA-MB-435): 31.6 µM (inactive)
GI50 (BT-549): > 100 µM (inactive)
GI50 (SF-539): > 100 µM (inactive)
GI50 (SK-MEL-28): > 100 µM (inactive)
GI50 (MDA-MB-231): > 100 µM (inactive)
GI50 (IGROV-1): > 100 µM (inactive)
GI50 (Hs-578T): > 100 µM (inactive)
GI50 (MOLT-4): 12.9 µM (inactive)
GI50 (HL-60): 3.31 µM (inactive)
GI50 (NCI-H23): > 100 µM (inactive)
GI50 (CAKI-1): 74.3 µM (inactive)
GI50 (OVCAR-4): > 100 µM (inactive)
GI50 (OVCAR-8): > 100 µM (inactive)
GI50 (HOP-92): > 100 µM (inactive)
GI50 (SF-268): > 86.3 µM (inactive)
GI50 (HT-29): > 100 µM (inactive)
GI50 (T47D): 49.1 µM (inactive)
GI50 (HCT-116): > 100 µM (inactive)
GI50 (NCI-H226): > 100 µM (inactive)
GI50 (RXF 393): > 100 µM (inactive)
GI50 (SK-MEL-2): > 100 µM (inactive)
GI50 (NCI-H460): > 84.1 µM (inactive)
GI50 (CCRF-CEM): 11.9 µM (inactive)
GI50 (EKVX): > 91.8 µM (inactive)
GI50 (ACHN): > 95.7 µM (inactive)
GI50 (HOP-62): > 100 µM (inactive)
GI50 (SW-620): > 100 µM (inactive)
GI50 (SR): 4.2 µM (inactive)
GI50 (HCT-15): > 76.7 µM
GI50 (DU-145): > 100 µM (inactive)
GI50 (U-251): > 100 µM (inactive)
GI50 (K562): 16.7 µM (inactive)
GI50 (NCI/ADR-RES): > 100 µM (inactive)
GI50 (M14): > 83.9 µM (inactive)
GI50 (MDA-N): 49.8 µM (inactive)
GI50 (SNB-19): > 100 µM (inactive)
GI50 (786-0): > 100 µM (inactive)
GI50 (RPMI-8226): 17.8 µM (inactive)
GI50 (LOX IMVI): > 53.1 µM (inactive)
GI50 (OVCAR-3): > 94.8 µM (inactive)
GI50 (SK-MEL-5): 36.3 µM (inactive)
GI50 (UACC-257): > 100 µM (inactive)
GI50 (SN12C): > 100 µM (inactive)
GI50 (SF-295): > 88.7 µM (inactive)
GI50 (KM12): 20.7 µM (inactive)
GI50 (HCC 2998): > 84.3 µM (inactive)
GI50 (A549): > 100 µM (inactive)
GI50 (UO-31): > 40.5 µM (inactive)
GI50 (Malme-3M): > 100 µM (inactive)
GI50 (NCI-H522): 9.1 µM (inactive)
GI50 (UACC-62): 48.6 µM (inactive)
GI50 (OVCAR-5): > 100 µM (inactive)
GI50 (TK-10): > 100 µM (inactive)
GI50 (MCF7): > 88.3 µM (inactive)
GI50 (PC-3): > 100 µM (inactive)
GI50 (COLO 205): 29.3 µM (inactive)
GI50 (SNB-75): 53.8 µM (inactive)
GI50 (SK-OV-3): > 100 µM (inactive)

COc1ccc(N2C(=O)CC(=O)N(C(=O)CCCCCCCCC(=O)N3C(=O)CC(=O)N(c4ccc(OC)cc4)C3=S)C2=S)cc1
GI50 (A498): > 100 µM (inactive)
GI50 (MDA-MB-435): 61.1 µM (inactive)
GI50 (BT-549): 33.9 µM (inactive)
GI50 (SF-539): > 100 µM (inactive)
GI50 (SK-MEL-28): > 100 µM (inactive)
GI50 (MDA-MB-231): > 100 µM (inactive)
GI50 (Hs-578T): > 100 µM (inactive)
GI50 (MOLT-4): 54.3 µM (inactive)
GI50 (HL-60): 95.9 µM (inactive)
GI50 (NCI-H23): > 100 µM (inactive)
GI50 (CAKI-1): > 100 µM (inactive)
GI50 (OVCAR-4): > 100 µM (inactive)
GI50 (OVCAR-8): > 100 µM (inactive)
GI50 (HOP-92): > 100 µM (inactive)
GI50 (SF-268): > 100 µM (inactive)
GI50 (HT-29): > 100 µM (inactive)
GI50 (T47D): 97.9 µM (inactive)
GI50 (HCT-116): > 100 µM (inactive)
GI50 (NCI-H226): > 100 µM (inactive)
GI50 (RXF 393): > 100 µM (inactive)
GI50 (SK-MEL-2): > 100 µM (inactive)
GI50 (NCI-H460): > 100 µM (inactive)
GI50 (CCRF-CEM): 31.6 µM (inactive)
GI50 (EKVX): > 100 µM (inactive)
GI50 (ACHN): > 100 µM (inactive)
GI50 (HOP-62): > 100 µM (inactive)
GI50 (SW-620): > 100 µM (inactive)
GI50 (SR): 39.4 µM (inactive)
GI50 (HCT-15): > 100 µM
GI50 (DU-145): > 100 µM (inactive)
GI50 (U-251): > 100 µM (inactive)
GI50 (K562): 44.3 µM (inactive)
GI50 (NCI/ADR-RES): > 100 µM (inactive)
GI50 (M14): > 100 µM (inactive)
GI50 (MDA-N): 57.4 µM (inactive)
GI50 (SNB-19): > 100 µM (inactive)
GI50 (786-0): > 100 µM (inactive)
GI50 (RPMI-8226): 44 µM (inactive)
GI50 (LOX IMVI): 78.3 µM (inactive)
GI50 (OVCAR-3): > 100 µM (inactive)
GI50 (SK-MEL-5): 57.9 µM (inactive)
GI50 (UACC-257): > 100 µM (inactive)
GI50 (SN12C): > 100 µM (inactive)
GI50 (SF-295): > 100 µM (inactive)
GI50 (KM12): 79.6 µM (inactive)
GI50 (HCC 2998): > 100 µM (inactive)
GI50 (A549): > 100 µM (inactive)
GI50 (UO-31): 79.6 µM (inactive)
GI50 (Malme-3M): > 100 µM (inactive)
GI50 (NCI-H522): 65.2 µM (inactive)
GI50 (UACC-62): > 100 µM (inactive)
GI50 (OVCAR-5): > 100 µM (inactive)
GI50 (TK-10): > 100 µM (inactive)
GI50 (MCF7): > 100 µM (inactive)
GI50 (PC-3): > 100 µM (inactive)
GI50 (COLO 205): > 100 µM (inactive)
GI50 (SNB-75): > 100 µM (inactive)
GI50 (SK-OV-3): > 100 µM (inactive)
